Values quoted from earlier work as cited in patent US12311052B2, “Mitochondrial performance enhancement nanoemulsion method” (Quicksilver Scientific, Inc., priority 2017, dated 2025).
Like-named read-outs stand apart in the source and are kept apart here. Blank lines part the entries; values can stand above or below the molecule they belong to.

Key:
[1] = consumed orally
mice = conditions: PQQ deficient mice compared to PQQ supplemented mice
cells = conditions: inhibitors rotenone, 3-nitropropionic acid, antimycin A, sodium azide
Hepa1-6 mouse cells = conditions: 10-30 μM PQQ for 24-48 hours
[2] = oral administration; extensively metabolized to glucuronide conjugate by liver and intestine

- bioavailability [1]: ~10%
Structure (SMILES): COC1=C(OC)C(=O)C(C/C=C(\C)CC/C=C(\C)CC/C=C(\C)CC/C=C(\C)CC/C=C(\C)CC/C=C(\C)CC/C=C(\C)CC/C=C(\C)CC/C=C(\C)CCC=C(C)C)=C(C)C1=O [CoQ10, Coenzyme Q10]

Structure (SMILES): O=C(O)c1cc(C(=O)O)c2c(n1)C(=O)C(=O)c1cc(C(=O)O)[nH]c1-2.[Na].[Na] [PQQ, Pyrroloquinoline quinone disodium salt]
- reduction in the relative amount of mitochondria in the liver (mice): 20 to 30%
- protection of cells from mitochondrial inhibition (cells): protect cells from mitochondrial inhibition
- citrate synthase and cytochrome c oxidase activity, Mitotracker staining, mitochondrial DNA content, cellular oxygen respiration (Hepa1-6 mouse cells): increased citrate synthase and cytochrome c oxidase activity, Mitotracker staining, mitochondrial DNA content, and cellular oxygen respiration

- bioavailability [2]: about 0.5%
Structure (SMILES): Oc1ccc(/C=C/c2cc(O)cc(O)c2)cc1 [resveratrol, 3,5,4′-trihydroxy-trans-stilbene]
